Laboratory results: patent US7794994B2 (Kemeta, LLC, priority 2001, dated 2010)

Assays:
[1] = constant perfusion at 1.36 mmol/min. for three hours; cited from earlier work
[2] = tested on: 3-enzyme system (S-ADH coupled to lactate dehydrogenase and pyruvate oxidase); assay: S-ADH coupled to H2O2 formation electrochemical assay (3-enzyme system), interference compounds; format: biochemical, X. autotrophicus Py2; conditions: Acetone plus 10 mM ethanol, 50 μM isopropanol or 50 μM isobutanol; data not shown
Method: Secondary alcohol dehydrogenase coupled to H2O2 formation electrochemical assay. […] Before measurements the electrode surface was polished using Al2O3 paste for 1 min. and then rinsed with deionized water, sonicated for 1 min. and rinsed with water again. The polished Pt electrode was then pretreated electrochemically by applying 10 cycles of 100 mV/s from +200 mV to +900 mV. All potentials were referenced versus a Ag/AgCl electrode (BAS part number MF-2078). Assays contained potassium phosphate (100 mM, pH 7.2), purified S-ADH (1 U/mL), NADH (201 μM), lactate (100 mM), lactate dehydrogenase (5 U/mL), pyruvate oxidase (4 U/mL), flavin adenine dinucleotide (0.01 mM), cocarboxylase (0.2 mM), in a total volume of 0.5 mL. […] After a 2 min. incubation period, the potential was stepped from open circuit to 350 mV.

SMILES: CC(=O)CC(=O)[O-].[Na+] [Na acetoacetate]
- blood ketone body concentration at the end of perfusion [1]: 3 µmol·mL

SMILES: CC(C)CO [isobutanol]
- interference with the acetone measurement (current response) [2]: do not interfere
